Measurements published in US20120165304A1, “6,7,8,9-Tetrahydro-5H-1,4,7,10a-tetraaza-cyclohept[f]indene derivatives, pharmaceutical compositions containing these compounds, their use and processes for preparing them” (BOEHRINGER INGELHEIM INTERNATIONAL GMBH, priority 2008, published 2012).
pEC50: −log10 of the molar value.

Biological target: human 5-HT2C receptor (Homo sapiens, UniProt P28335, I156V/I160V/N158S)
Assay: cell-based

Chain of human 5-HT2C receptor (P28335 33-458 I156V/N158S/I160V limits assumed): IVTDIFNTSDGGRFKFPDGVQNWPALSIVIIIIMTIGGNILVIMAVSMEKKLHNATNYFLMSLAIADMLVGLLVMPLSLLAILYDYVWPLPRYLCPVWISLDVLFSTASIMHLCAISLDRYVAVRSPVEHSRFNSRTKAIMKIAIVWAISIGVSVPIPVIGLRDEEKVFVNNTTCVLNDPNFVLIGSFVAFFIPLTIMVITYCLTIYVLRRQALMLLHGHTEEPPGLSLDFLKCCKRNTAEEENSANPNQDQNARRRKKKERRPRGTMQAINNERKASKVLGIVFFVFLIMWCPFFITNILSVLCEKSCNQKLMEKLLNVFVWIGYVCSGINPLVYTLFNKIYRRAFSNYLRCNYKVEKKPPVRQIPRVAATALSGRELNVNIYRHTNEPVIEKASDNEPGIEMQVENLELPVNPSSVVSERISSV

| SMILES | pEC50 |
| --- | --- |
| Brc1ccc(OC2CN(c3c4c(nc5ccnn35)CCNCC4)C2)cc1 [Example 35.2] | 6.74 |
| Cc1cccc2[nH]c(C3CN(c4c5c(nc6ccnn46)CCNCC5)C3)nc12 [Example 34.5] | 6.61 |
| Cc1cnn2c(N3CC(C(=O)N(C)Cc4ccc(C#N)cc4)C3)c3c(nc12)CCNCC3 [Example 31.250] | 8.05 |
| Cc1ccccc1OC1CN(c2c3c(nc4ccnn24)CCNCC3)C1 [Example 35.5] | 6.95 |
| Cn1c(C2CN(c3c4c(nc5ccnn35)CCNCC4)C2)nc2cc(Cl)ccc21 [Example 34.3] | 6.38 |
| Cc1cccnc1CN(C)C(=O)C1CN(c2c3c(nc4ccnn24)CCNCC3)C1 [Example 31.196] | 6.71 |
| CN(Cc1ccc(Cl)cc1)C(=O)C1CN(c2c3c(nc4c(Br)cnn24)CCNCC3)C1 [Example 31.141] | 7.06 |
| O=C(C1CN(c2c3c(nc4ccnn24)CCNCC3)C1)N1CCc2cc(F)ccc21 [Example 31.217] | 7.25 |
| CC(C)=CCN1CCC(NC(=O)C2CN(c3c4c(nc5ccnn35)CCNCC4)C2)CC1 [Example 43, 1-(6,7,8,9-Tetrahydro-5H-1,4,7,10a-tetraaza-cyclohept[f]inden-10-yl)-azetidine-3-carboxylic acid [1-(3-methyl-but-2-enyl)-piperidin-4-yl]-amide] | 8.10 |
| C#CCNC(=O)C1CN(c2c3c(nc4ccnn24)CCNCC3)C1 [Example 37.85] | 7.03 |
| CC(=O)NC1CCN(C(=O)C2CN(c3c4c(nc5ccnn35)CCN(C)CC4)C2)CC1 [Example 36.28] | 6.42 |
| O=C(C1CN(c2c3c(nc4ccnn24)CCNCC3)C1)N1CCC(O)(c2cc(F)cc(F)c2)CC1 [Example 31.195] | 8.15 |
| CN(Cc1ccc(Cl)cc1)C(=O)C1CN(c2c3c(nc4ccnn24)CCNCC3)C1 [Example 31.40] | 7.40 |
| O=C(C1CN(c2c3c(nc4ccnn24)CCNCC3)C1)N1CC[C@H](Oc2cccc(Cl)c2)C1 [Example 31.213] | 6.99 |
| CN1CCc2nc3ccnn3c(N3CC(C(=O)N4CCC5(CCC5)C4)C3)c2CC1 [Example 36.34] | 6.05 |
| Fc1cccc(OC2CN(c3c4c(nc5ccnn35)CCNCC4)C2)c1 [Example 1.9] | 7.59 |
| CN(CCc1ccc2ccccc2c1)C(=O)C1CN(c2c3c(nc4ccnn24)CCNCC3)C1 [Example 31.71] | 6.44 |
| FC(F)(F)c1ccc(OC2CN(c3c4c(nc5ccnn35)CCNCC4)C2)nc1 [Example 20.8] | 6.03 |
| COc1ccc(CCN(C)C(=O)C2CN(c3c4c(nc5ccnn35)CCNCC4)C2)cc1 [Example 31.27] | 6.56 |
| O=C(C1CN(c2c3c(nc4ccnn24)CCNCC3)C1)N1CCN(C2CCCCC2)CC1 [Example 37.38] | 8.52 |
| O=C(C1CN(c2c3c(nc4ccnn24)CCNCC3)C1)N1Cc2ccccc2C1 [Example 31.44] | 6.95 |
| C[C@@H]1CN(C(=O)C2CN(c3c4c(nc5ccnn35)CCN(C)CC4)C2)C[C@H](C)O1 [Example 36.21] | 6.79 |
| CC(C)CCNC(=O)C1CN(c2c3c(nc4ccnn24)CCN(C)CC3)C1 [Example 36.56] | 6.66 |
| Cc1nc(CN(C)C(=O)C2CN(c3c4c(nc5ccnn35)CCNCC4)C2)c(C)o1 [Example 31.58] | 7.28 |
| CC1(C(=O)N2CCC3(CC2)OCc2ccccc23)CN(c2c3c(nc4ccnn24)CCNCC3)C1 [Example 32.5] | 5.18 |
| CC(C)C1CCN(C(=O)C2CN(c3c4c(nc5ccnn35)CCN(C)CC4)C2)CC1 [Example 36.20] | 7.20 |

| SMILES | pEC50 |
| --- | --- |
| CCCCNC(=O)C1CN(c2c3c(nc4ccnn24)CCNCC3)C1 [Example 37.72] | 7.04 |
| Fc1cc(OCC2CN(c3c4c(nc5ccnn35)CCNCC4)C2)ccc1Cl [Example 15.13] | 7.55 |
| O=C(C1CN(c2c3c(nc4ccnn24)CCNCC3)C1)N1CCC(CCc2ccc(F)cc2)CC1 [Example 31.105] | 6.95 |
| Cc1cccc(CN(C)C(=O)C2CN(c3c4c(nc5ccnn35)CCNCC4)C2)n1 [Example 31.208] | 7.21 |
| CC(C)(C)C1CCN(C(=O)C2CN(c3c4c(nc5ccnn35)CCNCC4)C2)CC1 [Example 31.121] | 7.66 |
| O=C(C1CN(c2c3c(nc4ccnn24)CCNCC3)C1)N1CCCC(F)(F)C1 [Example 31.201] | 7.62 |
| CN1CCc2nc3ccnn3c(N3CC(C(=O)N4CCN(C5CCCCC5)CC4)C3)c2CC1 [Example 36.54] | 7.01 |
| Cc1cnc(C2CN(c3c4c(nc5ccnn35)CCNCC4)C2)o1 [Example 10, 10-[3-(5-Methyl-oxazol-2-yl)-azetidin-1-yl]-6,7,8,9-tetrahydro-5H-1,4,7,10a-tetraaza-cyclohepta[f]indene] | 6.07 |
| O=C(O)C1CN(c2c3c(nc4ccnn24)CCNCC3)C1 [Example 1.14] | 5.87 |
| O=C(C1CN(c2c3c(nc4ccnn24)CCNCC3)C1)N1CCN(C2CCOCC2)CC1 [Example 37.31] | 8.15 |
| O=C(C1CN(c2c3c(nc4ccnn24)CCNCC3)C1)N1CCN(CC2CC2)CC1 [Example 37.17] | 8.52 |
| CC(C)NC1CCN(C(=O)C2CN(c3c4c(nc5ccnn35)CCNCC4)C2)CC1 [Example 37.21] | 8.70 |
| COCC1(CNC(=O)C2CN(c3c4c(nc5ccnn35)CCNCC4)C2)CCCC1 [Example 37.69] | 7.14 |
| COc1ccc(C)cc1OCC1CN(c2c3c(nc4ccnn24)CCNCC3)C1 [Example 15.7] | 7.92 |
| O=C(NC1CCC(C(F)(F)F)CC1)C1CN(c2c3c(nc4ccnn24)CCNCC3)C1 (stereo not drawn) [Example 37.60] | 7.31 |
| c1ccc(COC2CN(c3c4c(nc5ccnn35)CCNCC4)C2)cc1 [Example 20, 10-(3-Benzyloxy-azetidin-1-yl)-6,7,8,9-tetrahydro-5H-1,4,7,10a-tetraaza-cyclohepta[f]indene] | 6.46 |
| O=C(C1CN(c2c3c(nc4ccnn24)CCNCC3)C1)N1CCC(Cc2ccccc2)CC1 [Example 31.126] | 7.33 |
| Fc1cc(Cl)ccc1OCC1CN(c2c3c(nc4ccnn24)CCNCC3)C1 [Example 15.12] | 8.05 |
| CC(C)N1CCN(C(=O)C2CN(c3c4c(nc5ccnn35)CCNCC4)C2)CC1 [Example 37.3] | 8.52 |
| c1cnc2ccc(OC3CN(c4c5c(nc6ccnn46)CCNCC5)C3)cc2c1 [Example 35.43] | 6.68 |
| CN1CCc2nc3ccnn3c(N3CC(C(=O)N4CCC(F)CC4)C3)c2CC1 [Example 36.29] | 6.55 |
| CN1CCc2nc3ccnn3c(N3CC(C(=O)NC4CC(C)(C)N(C)C(C)(C)C4)C3)c2CC1 [Example 36.25] | 6.69 |
| O=C(C1CN(c2c3c(nc4ccnn24)CCNCC3)C1)N1CC[C@@H]2CCCC[C@@H]2C1 [Example 31.131] | 7.13 |
| O=C(NC1CCCOC1)C1CN(c2c3c(nc4ccnn24)CCNCC3)C1 (stereo not drawn) [Example 37.49] | 7.36 |
| CN(Cc1ccc(C(C)(C)C)cc1)C(=O)C1CN(c2c3c(nc4ccnn24)CCNCC3)C1 [Example 31.162] | 6.73 |
| Cc1ccc(OCC2CN(c3c4c(nc5ccnn35)CCNCC4)C2)c(F)c1F [Example 15.10] | 7.70 |

| SMILES | pEC50 |
| --- | --- |
| CCN1CCN(C(=O)C2CN(c3c4c(nc5ccnn35)CCNCC4)C2)CC1=O [Example 37.65] | 8.30 |
| CC1CCN(C(=O)C2CN(c3c4c(nc5ccnn35)CCN(C)CC4)C2)C1 (stereo not drawn) [Example 36.42] | 6.13 |
| O=C(NCCN1CCCCC1)C1CN(c2c3c(nc4ccnn24)CCNCC3)C1 [Example 37.81] | 7.40 |
| O=C(Nc1ccccc1)C1CN(c2c3c(nc4ccnn24)CCNCC3)C1 [Example 31.16] | 5.62 |
| CN(C(=O)C1CN(c2c3c(nc4ccnn24)CCNCC3)C1)C1CCCc2ccccc21 (stereo not drawn) [Example 31.171] | 6.01 |
| O=C(C1CN(c2c3c(nc4ccnn24)CCNCC3)C1)N1CCC(CCc2ccccc2)C1 (stereo not drawn) [Example 31.99] | 7.19 |
| Cc1cnn2c(N3CC(C(=O)N4CCC5(CCOC5)CC4)C3)c3c(nc12)CCNCC3 [Example 31.240] | 7.54 |
| CC1CNCCc2c1nc1ccnn1c2N1CCC1 (stereo not drawn) [Example 3.1] | 8.52 |
| CC1(C)CC(NC(=O)C2CN(c3c4c(nc5ccnn35)CCNCC4)C2)CC(C)(C)N1 [Example 37.7] | 7.82 |
| CN(Cc1cc(Cl)cc(Cl)c1)C(=O)C1CN(c2c3c(nc4ccnn24)CCNCC3)C1 [Example 31.165] | 7.14 |
| CN1C(C)(C)CC(NC(=O)C2CN(c3c4c(nc5ccnn35)CCNCC4)C2)CC1(C)C [Example 37.106] | 8.05 |
| CCc1cnn2c(N3CCCCC3)c3c(nc12)CCNCC3 [Example 25, 3-Ethyl-10-piperidin-1-yl-6,7,8,9-tetrahydro-5H-1,4,7,10a-tetraaza-cyclohepta[f]indene] | 6.97 |
| c1ccc(O[C@H]2CCN(c3c4c(nc5ccnn35)CCNCC4)C2)cc1 [Example 1.46] | 6.24 |
| Fc1c(Cl)cccc1OCC1CN(c2c3c(nc4ccnn24)CCNCC3)C1 [Example 15.25] | 6.67 |
| Fc1ccc(OCC2CN(c3c4c(nc5ccnn35)CCNCC4)C2)cc1Cl [Example 15.11] | 7.70 |
| O=C(C1CN(c2c3c(nc4ccnn24)CCNCC3)C1)N1CCc2cc(Cl)ccc21 [Example 31.147] | 7.11 |
| O=C(C1CN(c2c3c(nc4ccnn24)CCNCC3)C1)N1CCOC(c2ccccc2)C1 (stereo not drawn) [Example 31.8] | 7.03 |
| O=C(N1CCOCC1)C1(c2ccccc2)CCN(c2c3c(nc4ccnn24)CCNCC3)CC1 [Example 1.54] | 5.78 |
| OC1CN(c2c3c(nc4ccnn24)CCNCC3)C1 [Example 1.2] | 6.90 |
| CC(C)(C)CCNC(=O)C1CN(c2c3c(nc4ccnn24)CCNCC3)C1 [Example 37.83] | 7.29 |
| CC(NC(=O)C1CN(c2c3c(nc4ccnn24)CCNCC3)C1)C(C)(C)C (stereo not drawn) [Example 37.111] | 6.86 |
| CC(C)CN1CCN(C(=O)C2CN(c3c4c(nc5ccnn35)CCN(C)CC4)C2)CC1 [Example 36.17] | 7.06 |
| O=C(C1CN(c2c3c(nc4ccnn24)CCNCC3)C1)N1CCC2CC2(c2ccccc2)C1 (stereo not drawn) [Example 31.233] | 6.97 |
| O=C(C1CN(c2c3c(nc4ccnn24)CCNCC3)C1)N1CCCC(Cc2ccc(F)cc2)C1 (stereo not drawn) [Example 31.101] | 7.21 |
| c1ccc(OC2CN(c3c4c(nc5ccnn35)CCNCC4)C2)cc1 [Example 1.3] | 7.74 |
| O=C(C1CN(c2c3c(nc4ccnn24)CCNCC3)C1)N1CC2CC(c3ccccc3)(C2)C1 [Example 31.232] | 7.02 |
